Columns and labels:
weeds [1] = experiment: Post-emergence Test; assay type: in vivo; details: test plants of height 5-15 cm sprayed, rated after three weeks vs untreated control
Procedure: Post-emergence Test Solvent: 5 parts by weight of acetone Emulsifier: 1 part by weight of alkylaryl polyglycol ether To produce a suitable preparation of active compound, 1 part by weight of active compound is mixed with the stated amount of solvent, the stated amount of emulsifier is added and the concentrate is diluted with water to the desired concentration. Test plants which have a height of 5-15 cm are sprayed with the preparation of active compound such that the particular amounts of active compound desired are applied per unit area. The concentration of the spray liquor is chosen so that the particular amounts of active compound desired are applied in 1000 l of water/ha. After three weeks, the degree of damage to the plants is rated in % damage in comparison to the development of the untreated control. The figures denote: 0%=no effect (like untreated control) 100%=total destruction

weeds [2] = experiment: Pre-emergence Test; assay type: in vivo; details: soil sprayed about 24 hours after sowing, rated after three weeks vs untreated control
Procedure: Pre-emergence Test Solvent: 5 parts by weight of acetone Emulsifier 1 part by weight of alkylaryl polyglycol ether To produce a suitable preparation of active compound, 1 part by weight of active compound is mixed with the stated amount of solvent, the stated amount of emulsifier is added and the concentrate is diluted with water to the desired concentration. Seeds of the test plants are sown in normal soil. After about 24 hours, the soil is sprayed with the preparation of active compound such that the particular amount of active compound desired is applied per unit area. The concentration of the spray liquor is chosen so that the particular amount of active compound desired is applied in 1000 litres of water per hectare. After three weeks, the degree of damage to the plants is rated in % damage in comparison to the development of the untreated control. The figures denote: 0%=no effect (like untreated control) 100%=total destruction

Cn1c(C(F)(F)F)cc(=O)n(-c2cc(C3OCCO3)c(C#N)cc2F)c1=O [Preparation Example 1, 1-[4-cyano-2-fluoro-5-(1,3-dioxolan-2-yl)-phenyl]-3,6-dihydro-2,6-dioxo-3-methyl-4-trifluoromethyl-1(2H)-pyrimidine]
activity against weeds (degree of damage to the plants) (weeds [1]): very strong activity against weeds
activity against weeds (degree of damage to the plants) (weeds [2]): very strong activity against weeds

Source: patent US6562759B1, “Substituted phenyl uracils” (Bayer Aktiengesellschaft, priority 1999, dated 2003)
